Data on 30 molecules can be found in US10399932B2, “Inhibitors of indoleamine-2,3-dioxygenase for the treatment of cancer” (BRISTOL-MYERS SQUIBB COMPANY, priority 2015, dated 2019).

What is called IC50 is the concentration needed to halve the response being measured. High values mean a need for much substance, low ones inhibition by little substance.

Chain of human IDO1 (P14902 whole entry): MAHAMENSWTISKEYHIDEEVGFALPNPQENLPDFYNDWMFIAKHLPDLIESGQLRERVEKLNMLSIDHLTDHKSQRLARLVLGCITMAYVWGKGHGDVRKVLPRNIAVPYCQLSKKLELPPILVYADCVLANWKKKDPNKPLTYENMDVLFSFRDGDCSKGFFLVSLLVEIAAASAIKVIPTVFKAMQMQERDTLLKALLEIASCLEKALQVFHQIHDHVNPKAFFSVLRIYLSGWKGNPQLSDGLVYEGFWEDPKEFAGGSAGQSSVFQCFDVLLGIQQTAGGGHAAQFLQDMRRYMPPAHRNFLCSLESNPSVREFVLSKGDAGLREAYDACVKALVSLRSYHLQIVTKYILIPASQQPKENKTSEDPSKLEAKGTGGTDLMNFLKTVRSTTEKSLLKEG

This assay has as its target human IDO1 (Homo sapiens, UniProt P14902). The assay is described as follows: Assessment of human IDO-1 inhibitory activity in HEK cells (human IDO1/HEK293 cells, Ehrlich reagent, absorbance at 490 nm). In kind it is cell-based. Details: expressed in transfected cells. Particulars: In Vitro Potency in the HEK Human IDO-1 Cellular Assay. The method in brief:
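Stable human IDO1-expressing HEK293 cells treated with compound for 20 h at 37 °C in phenol red-free RPMI/10% FBS. Stopped with 0.2% TCA (final) and heated 30 min at 50 °C; supernatant mixed with Ehrlich reagent, absorbance read at 490 nm. IC50 normalised to DMSO (0%) and 500 nM reference standard (100% inhibition).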
`Cc1ccc(CC(=O)Nc2cc(C(CC(=O)O)C(C)C)ccc2N(C)C(C)(C)C)cc1` (single isomer, unassigned) [Example 1007-2] displayed an IC50 of over 50 nM. For `CC(C)C(CC(=O)O)c1ccc(N(C)C(C)(C)C)c(Nc2nc3ccccc3o2)c1` (single isomer, unassigned) [Example 1008-2] the value was over 50 nM; for `CCC(CC(=O)O)c1ccc(N(CC(C)C)CC(C)C)c(NC(=O)Cc2ccc(C#N)cc2)c1` (single isomer, unassigned) [Example 1105, 3-(3-(2-(4-Cyanophenyl)acetamido)-4-(diisobutylamino)phenyl)pentanoic acid], under 5 nM; for `CCC(CC(=O)O)c1cc(NC(=O)Nc2ccc(C)cc2)c(N(CC(C)C)C2CCCCC2)cc1F` (single isomer, unassigned) [Example 1107, 3-(4-(Cyclohexyl(isobutyl)amino)-2-fluoro-5-(3-(p-tolyl)ureido)phenyl)pentanoic acid], under 5 nM. For `CCOc1ccc(NC(=O)Nc2cc(C(CC)CC(=O)O)c(F)cc2N(CC(C)C)C2CCCCC2)cc1` (single isomer, unassigned) [Example 1109, 3-(4-(Cyclohexyl(isobutyl)amino)-5-(3-(4-ethoxyphenyl)ureido)-2-fluorophenyl) pentanoic acid] the value was under 5 nM; for `CCC(CC(=O)O)c1cc(NC(=O)Nc2ccc3c(c2)OCO3)c(N(CC(C)C)C2CCCCC2)cc1F` (single isomer, unassigned) [Example 1112, 3-(5-(3-(Benzo[d][1,3]dioxol-5-yl)ureido)-4-(cyclohexyl(isobutyl)amino)-2-fluorophenyl)pentanoic acid], under 5 nM. For `CCC(CC(=O)O)c1cc(NC(=O)Nc2cc(C)no2)c(N(CC(C)C)C2CCCCC2)cc1F` (single isomer, unassigned) [Example 1115, 3-(4-(Cyclohexyl(isobutyl)amino)-2-fluoro-5-(3-(3-methylisoxazol-5-yl)ureido)phenyl)pentanoic acid] the value was under 5 nM. `CCOc1ccc(NC(=O)Nc2cc(C(CC)CC(=O)O)c(F)cc2N(CC(C)C)C2CCCCC2)c(F)c1` (single isomer, unassigned) [Example 1118, 3-(4-(Cyclohexyl(isobutyl)amino)-5-(3-(4-ethoxy-2-fluorophenyl)ureido)-2-fluorophenyl)pentanoic acid]: the IC50 is under 5 nM. `CCC(CC(=O)O)c1cc(NC(=O)Nc2ccc(C)cc2F)c(N(CC(C)C)C2CCCCC2)cc1F` (single isomer, unassigned) [Example 1121, 3-(4-(Cyclohexyl(isobutyl)amino)-2-fluoro-5-(3-(2-fluoro-4-methylphenyl)ureido)phenyl)pentanoic acid] came in with an IC50 of under 5 nM. For `CCC(CC(=O)O)c1cc(NC(=O)Nc2cncnc2)c(N(CC(C)C)C2CCCCC2)cc1F` (single isomer, unassigned) [Example 1124, 3-(4-(Cyclohexyl(isobutyl)amino)-2-fluoro-5-(3-(pyrimidin-5-yl)ureido)phenyl)pentanoic acid], the half-inhibitory concentration (IC50) was under 5 nM.

Consider `CCC(CC(=O)O)c1cc(NC(=O)Nc2cnc(C)nc2)c(N(CC(C)C)C2CCCCC2)cc1F` (single isomer, unassigned) [Example 1127, 3-(4-(Cyclohexyl(isobutyl)amino)-2-fluoro-5-(3-(2-methylpyrimidin-5-yl)ureido)phenyl)pentanoic acid], for which the IC50 was under 5 nM. For `CCC(CC(=O)O)c1cc(NC(=O)Nc2ccc(C)cc2)c(N(CC(C)C)CC(C)C)cc1F` (single isomer, unassigned) [Example 1130, 3-(4-(Diisobutylamino)-2-fluoro-5-(3-(p-tolyl)ureido)phenyl)pentanoic acid] the value was under 5 nM; for `CCOc1ccc(NC(=O)Nc2cc(C(CC)CC(=O)O)c(F)cc2N(CC(C)C)CC(C)C)cc1` (single isomer, unassigned) [Example 1133, 3-(4-(Diisobutylamino)-5-(3-(4-ethoxyphenyl)ureido)-2-fluorophenyl)pentanoic acid], under 5 nM. For `CCC(CC(=O)O)c1cc(NC(=O)Nc2ccc3c(c2)OCO3)c(N(CC(C)C)CC(C)C)cc1F` (single isomer, unassigned) [Example 1136, 3-(5-(3-(Benzo[d][1,3]dioxol-5-yl)ureido)-4-(diisobutylamino)-2-fluorophenyl) pentanoic acid] the value was under 5 nM; for `CCOc1ccc(NC(=O)Nc2cc(C(CC)CC(=O)O)c(F)cc2N(CC(C)C)CC(C)C)c(F)c1` (single isomer, unassigned) [Example 1139, 3-(4-(Diisobutylamino)-5-(3-(4-ethoxy-2-fluorophenyl)ureido)-2-fluorophenyl) pentanoic acid], under 5 nM; for `CCC(CC(=O)O)c1cc(NC(=O)Nc2cnc(OC)nc2)c(N(CC(C)C)CC(C)C)cc1F` (single isomer, unassigned) [Example 1142, 3-(4-(Diisobutylamino)-2-fluoro-5-(3-(2-methoxypyrimidin-5-yl)ureido)phenyl)pentanoic acid], under 5 nM. For `CCC(CC(=O)O)c1ccc(N2CCC[C@@H]2COC)c(NC(=O)Cc2ccc(C)cc2)c1` (single isomer, unassigned) [Example 1145] the value was over 50 nM; for `COCC(CC(=O)O)c1cc(F)c(N(CC(C)C)C2CCCCC2)c(NC(=O)Nc2ccc(C)cc2)c1` (single isomer, unassigned) [Example 1161, 3-(4-(cyclohexyl(isobutyl)amino)-3-fluoro-5-(3-(p-tolyl)ureido)phenyl)-4-methoxybutanoic acid], under 5 nM; for `COCC(CC(=O)O)c1cc(F)c(N(CC(C)C)C2CCCCC2)c(NC(=O)Nc2ccc(Cl)cc2F)c1` (single isomer, unassigned) [Example 1164, 3-(3-(3-(4-chloro-2-fluorophenyl)ureido)-4-(cyclohexyl(isobutyl)amino)-5-fluorophenyl)-4-methoxybutanoic acid], under 5 nM. Consider `CCOc1ccc(NC(=O)Nc2cc(C(COC)CC(=O)O)cc(F)c2N(CC(C)C)C2CCCCC2)c(F)c1` (single isomer, unassigned) [Example 1165, 3-(4-(cyclohexyl(isobutyl)amino)-3-(3-(4-ethoxy-2-fluorophenyl)ureido)-5-fluorophenyl)-4-methoxybutanoic acid], for which the IC50 is under 5 nM.

`COCC(CC(=O)O)c1cc(F)c(N(CC(C)C)C2CCCCC2)c(NC(=O)Nc2ccc(Cl)cc2)c1` (single isomer, unassigned) [Example 1166, 3-(3-(3-(4-chlorophenyl)ureido)-4-(cyclohexyl(isobutyl)amino)-5-fluorophenyl)-4-methoxybutanoic acid] came in with an IC50 of under 5 nM.

Consider `CCOc1ccc(CC(=O)Nc2cc(C(COC)CC(=O)O)cc(F)c2N(CC(C)C)C2CCCCC2)cc1` (single isomer, unassigned) [Example 1173, 3-(4-(cyclohexyl(isobutyl)amino)-3-(2-(4-ethoxyphenyl)acetamido)-5-fluorophenyl)-4-methoxybutanoic acid], for which the concentration for half-maximal inhibition (IC50) was under 50 nM.

`COCC(CC(=O)O)c1cc(F)c(N(CC(C)C)C2CCCCC2)c(NC(=O)Cc2ccc(C)cc2)c1` (single isomer, unassigned) [Example 1174, 3-(4-(cyclohexyl(isobutyl)amino)-3-fluoro-5-(2-(p-tolyl)acetamido)phenyl)-4-methoxybutanoic acid] showed a concentration for half-maximal inhibition (IC50) of under 50 nM. For `COCC(CC(=O)O)c1cc(F)c(N(CC(C)C)C2CCCCC2)c(NC(=O)Cc2ccc(Cl)cc2F)c1` (single isomer, unassigned) [Example 1175, 3-(3-(2-(4-chloro-2-fluorophenyl)acetamido)-4-(cyclohexyl(isobutyl)amino)-5-fluorophenyl)-4-methoxybutanoic acid] the value was under 50 nM; for `COCC(CC(=O)O)c1cc(F)c(N(CC(C)C)CC(C)C)c(NC(=O)Cc2ccc(Cl)cc2F)c1` (single isomer, unassigned) [Example 1187, 3-(3-(2-(4-Chloro-2-fluorophenyl)acetamido)-4-(diisobutylamino)-5-fluorophenyl)-4-methoxybutanoic acid], under 5 nM. For `COCC(CC(=O)O)c1cc(F)c(N(CC(C)C)CC(C)C)c(NC(=O)Nc2cc(C)on2)c1` (single isomer, unassigned) [Example 1188, 3-(4-(Diisobutylamino)-3-fluoro-5-(3-(5-methylisoxazol-3-yl)ureido)phenyl)-4-methoxybutanoic acid] the value was under 50 nM; for `COCC(CC(=O)O)c1cc(F)c(N(CC(C)C)CC(C)C)c(NC(=O)Nc2ccc(OC)cc2F)c1` (single isomer, unassigned) [Example 1189, 3-(4-(Diisobutylamino)-3-fluoro-5-(3-(2-fluoro-4-methoxyphenyl)ureido)phenyl)-4-methoxybutanoic acid], under 5 nM. For `CCOc1ccc(CC(=O)Nc2cc(C(COC)CC(=O)O)cc(F)c2N(CC(C)C)CC(C)C)cc1` (single isomer, unassigned) [Example 1193, 3-(4-(Diisobutylamino)-3-(2-(4-ethoxyphenyl)acetamido)-5-fluorophenyl)-4-methoxybutanoic acid] the value was under 50 nM; for `COCC(CC(=O)O)c1cc(F)c(N(CC(C)C)CC(C)C)c(NC(=O)Nc2ccc(Cl)cc2F)c1` (single isomer, unassigned) [Example 1195, 3-(3-(3-(4-Chloro-2-fluorophenyl)ureido)-4-(diisobutylamino)-5-fluorophenyl)-4-methoxybutanoic acid], under 5 nM; for `CC(C)CN(c1ccc(C(CC(=O)O)C2CC2)cc1NC(=O)Nc1ccc(Cl)cc1F)C1CCOCC1` (single isomer, unassigned) [Example 1199 Enantiomer 2, 3-(3-(3-(4-Chloro-2-fluorophenyl)ureido)-4-(isobutyl(tetrahydro-2H-pyran-4-yl)amino)phenyl)-3-cyclopropylpropanoic acid], under 5 nM.
